In patent US8980795B2, “Strigolactone analogues and their use” (King Abdullah University of Science and Technology, priority 2011, dated 2015):

How the values were obtained:
Striga hermonthica seeds = experiment: Striga seed germination assay; type: in vivo; conditions: concentration of 3.3 μM; positive control, same conditions
Method: Striga Seed Germination Assay Pre-conditioning of Striga hermonthica seeds was carried out in a first step to see the effect of germination stimulants. For this purpose clean Striga seeds were surface sterilized with 2% sodium hypochlorite in sterile water containing 0.4% of Tween-20. About 50 to 100 sterilized seeds were spread on 9-mm diameter glass fibre filter paper discs. Twelve of these discs were placed in a 9-cm diameter Petri-dish on sterilized Whatman filter paper, moistened with 3.0 ml sterilized water. After sealing with parafilm, the Petri-dishes were placed in darkness in an incubator at 30° C. After 10 days of incubation, the discs with preconditioned seeds were supposed to be ready to test germination stimulant. Surplus moisture was evaporated from each petri dish in laminar flow cabinet. The dry discs were then placed in another Petri-dish (six per Petri-dish) containing a filter paper ring (outer diameter 9 cm, inner diameter 8 cm) moistened with 0.9 ml water. Various concentration of the compound of formula IA were applied (50 μl per disc) to triplicate discs. GR24, a synthetic strigolactone analogue, was applied as positive control. Subsequently, the Striga seeds were incubated in darkness at 30° C. for another 48 hours and germination (seeds with radicle protruding through the seed coat) scored with the help of a binocular microscope.

ccd8 rice mutant (d10) = experiment: Rice tillering assay; type: in vivo, rice (Oryza sativa L.); conditions: 2 μM through nutrient solution, supplied daily, tillers counted up to 12 days
Method: Rice seeds were surface sterilized with 2% sodium hypochlorite. The seeds were allowed to germinate in a Petri dish on a moistened filter paper. In the meanwhile bottom of 1.5 ml eppendorf tube was cut and filled with 0.6% phyto-agar. One pre-germinated seed was planted in the center of the tube on solid phytoagar and this tube was fitted in the cap of 10 ml plastic tube. The 10 ml tube was filled with modified Hoagland nutrient solution. After two weeks of planting, the compound of formula IA (2 μM) was added through nutrient solution to half of the tubes of each rice cultivars/mutants and the remaining half were kept as control. The nutrient solution with or without the compound of formula IA was supplied daily. Number of tillers per plant was counted at 24 hours interval up to 12 days of carlactone application.

With CC1CC(O/C=C2/C(=O)OC3c4ccccc4CC23)OC1=O (centres unmarked) [GR24] the germination activity (Striga hermonthica seeds) was roughly 50%.

For CC1=CC(O/C=C(C)\C=C\C2=C(C)CCCC2(C)C)OC1=O (centres unmarked) [Compound IA], the tiller number (ccd8 rice mutant (d10)) was “reduction of tiller number”.
